Experimental data as given in patent US10150793B2, “Antagonists of CB1 receptor” (INSERM (Institut National de la Santé et de la Recherche …, priority 2011, dated 2018).
“Also recorded” adds a separate entry of the source.

Assays:
CHO cells = experiment: Study of metabolism in vitro in CHO cells, steroids in culture medium by GC/MS; conditions: CHO cells
Description: (§1) Plasma, brain and culture medium levels of pregnenolone (5-Pregnen-3β-ol-20-one), allopregnanolone (3α-hydroxy-5α-pregnan-20-one), epiallopregnanolone (3β-hydroxy-5α-pregnan-ol-20-one), testosterone, and 5α dihydrotestosterone were determined by GC/MS according to the of estraction, purification and quantification protocol described previously (George O, et al., Biol Psychiatry. 2010 68: 956-63, Vallee M, et al., Anal Biochem. 2000, 287:153-66).
The CHO-K1 cell line (#CCL-61, ATCC-LGC, USA) derived as a subclone from the parental CHO cell line initiated from a biopsy of an adult Chinese hamster ovary was used. The CHO-K1 cells were seeded on 24-well plates (#353047, BD Biosciences, USA) to the appropriate concentration (25×10^4 cells/well) in fresh, antibiotic-free medium constituted by 90% DMEM-Glutamax; (#31966-21, Life technologies, USA) and 10% Fetal Bovine Serum (#10270-106, Life technologies, USA).
In this example the inventors further analyzed the metabolism of pregnenolone derivatives using an in vitro test in CHO cells. These cells derived from the ovary have all the enzymes needed to metabolize pregnenolone in down stream steroids.

TNF-α = experiment: Increase in plasma TNF-alpha induced by LPS; type: in vivo, mice; conditions: Mus musculus; mice; compounds 6 mg/kg 15 min before LPS
Description: Trunk blood was collected and centrifuged at 3000 rpm for 15 min at 4° C. Plasma was stored at −80° C. until measurement of TNFα was carried out. Plasma TNFα levels were assessed using an ELISA kit, following the manufacturer's instructions (Fisher Scientific, Catalog #E6473C).
In this example the inventors further analyzed the ability of pregnenolone to inhibit the effects of CB1 activation in the context of inflammation and fibrosis. […] TNF-alpha is one of the cellular responses to inflammatory stimuli more involved in promoting fibrosis.
(§2) Other pregnenolone derivatives (Table 4) for which the metabolism in downstream active steroids was reduced were tested for their ability to inhibit: 1. effects of the THC-induced cannabinoid tetrade (decrease in body temperature and in locomotor activity, (THC 10 mg/kg, compounds 6 mg/kg 15-30 min before THC) that is recognized as a sound method to evaluate the activation of the CB1 receptor; 2. THC-induced increase in food intake a typical effect of CB1 activation (THC between 0.5 and 1 mg/kg, compounds between 2 and 4 mg/kg 30 min before THC); 3. the increase in TNFalpha induced by LPS, another effects typical of CB1 […] (compounds 6 mg/kg 15 min before LPS). For each compound and each test independent groups of animals were used (at least n=6 per compound/per test).

[1] = Allopregnanolone and epiallopregnanolone in nucleus accumbens after high dose injection (GC/MS); type: in vivo, Wistar rats; conditions: 50 mg/kg; 30 min after the injections
Description: The capacity of a compound of the invention to be or not to be converted into active pregnenolone downstream derivatives may be evaluated by administering this compound, for example by injecting 50 mg/kg, to a rat, sacrificing the rat 30 min later, measuring the concentration of allopregnanolone and epiallopregnanolone in nucleus accumbens of rat by GC/MS and comparing these concentrations to allopregnanolone and epiallopregnanolone in a rat whose has been injected only a vehicle or pregnenolone.
The concentrations of allopregnanolone and epiallopregnanolone were measured in nucleus accumbens of individual animal by GC/MS 30 min after the injections.

CB1 receptor [2] = target: T1, CB1 receptor (Mus musculus, UniProt P47746); experiment: THC-induced increase in food intake in mice; type: in vivo; set-up: tissue Charles River Laboratories (France) (animals); host or cells: living mice, whole animal; conditions: for effect on THC-induced increase in food intake (hyperphagia) in mice: 24 h-food deprived C57B1/6 mice, THC 1 mg/kg, compound 2 mg/kg sc; for % Inhibition of THC-Induced food intake: mice, THC between 0.5 and 1 mg/kg, compounds between 2 and 4 mg/kg 30 min before THC
T1 sequence (P47746 whole entry): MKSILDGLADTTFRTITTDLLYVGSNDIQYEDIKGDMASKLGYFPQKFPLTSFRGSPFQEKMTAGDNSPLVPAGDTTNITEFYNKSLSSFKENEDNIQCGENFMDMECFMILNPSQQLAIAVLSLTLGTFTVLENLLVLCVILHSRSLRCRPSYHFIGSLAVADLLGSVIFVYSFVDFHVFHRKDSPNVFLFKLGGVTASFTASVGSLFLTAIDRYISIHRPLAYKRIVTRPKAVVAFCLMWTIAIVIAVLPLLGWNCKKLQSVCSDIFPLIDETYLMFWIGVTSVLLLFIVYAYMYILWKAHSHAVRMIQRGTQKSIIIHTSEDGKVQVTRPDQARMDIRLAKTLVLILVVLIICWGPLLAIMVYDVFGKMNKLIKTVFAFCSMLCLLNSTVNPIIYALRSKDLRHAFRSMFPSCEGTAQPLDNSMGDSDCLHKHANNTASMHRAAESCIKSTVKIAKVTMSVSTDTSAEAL
Description: (§3) Food intake was evaluated by measuring consumption of food in the home cages of the animals. For each animal, 50-100 g of standard laboratory chow (U.A.R., France) was placed in the cleaned home cage. The remaining amount of food was weighted 1 h later and the amount of food consumed calculated.
as §2

CB1 receptor [3] = target: T1, CB1 receptor; experiment: Food intake in 24 h-food deprived mice (fasting/refeeding); type: in vivo, C57B1/6 mice; set-up: tissue Charles River Laboratories (France) (animals); host or cells: living mice, whole animal; conditions: no THC; for first statistically significant dose for decrease of food intake: food-deprived (food-restricted) mice; for effect on food intake in 24 h-food deprived mice: food intake over 1 h
CB1 receptor [4] = target: T2, CB1 receptor (Rattus norvegicus, UniProt P20272); experiment: THC-induced increase in food intake in ad libitum fed Wistar rats; type: in vivo; set-up: tissue Charles River Laboratories (France) (animals); host or cells: living Wistar rats, whole animal; conditions: THC 0.5 mg/kg; 17-methylpregnenolone 8 mg/kg sc
T2 sequence (P20272 whole entry): as the sequence (P47746 whole entry) above, with D95E counted along it
Description: as §3

CB1 receptor [5] = target: T1, CB1 receptor; experiment: THC-induced cannabinoid tetrad (body temperature, locomotor activity, catalepsy, analgesia); type: in vivo, mice; set-up: tissue Charles River Laboratories (France) (animals); host or cells: living mice, whole animal; conditions: mice; THC 10 mg/kg; compounds 6 mg/kg 15-30 min before THC
GABA-A receptors = experiment: GABA-A receptors-mediated mIPSC in nucleus accumbens principal neurons; type: cell-based, mouse
Description: GABA-A receptors-mediated currents: mIPSC were recorded in the presence of the AMPAR and NMDAR antagonists (DNQX 20 μM and AP-5 50 μM, respectably). mEPSC-mIPSC analysis: Typically, after breaking in, cells were left to equilibrate for 20 minutes and the subsequent 10 minutes recording of mEPSC-mIPSC was used to analysis. mEPSC-mIPSC were detected using a template generated from averaging several typical events (Clampfit 10, Molecular Devices). The template was slid along the data trace one point at a time. At each position, the template was optimally scaled and offset to fit the data. A lower-amplitude threshold of 7 pA and 10 pA were applied for mEPSC and mIPSC, respectably, equivalent to 2.5SD of baseline noise. For each cell, the kinetics of mEPSC-mIPSC was measured from the average event using Clampfit 10. To estimate decay times, a two exponentials curve was fitted between 5 and 95% of the decay phase of the current given by the following equation: y(t)=A1·e^(−t/τ1)+A2·e^(−t/τ2), where A is the amplitude, t is the time and τ is the decay time constant. The weighted tau was then calculated.
In order to evaluate the effect of pregnenolone on the function of post-synaptic GABA we recorded mIPSC and compared its amplitude and decay time between groups. We observed that mIPSC amplitude and decay time were similar between controls (amplitude: 17.9±0.8 pA; decay time: 11.1±0.3 ms) and slices pre-treated with pregnenolone (100 nM and 1 μM, respectively; amplitude: 17.3±0.4 pA, 15.9±0.4 pA; decay time: 10.2±0.4 ms, 10.8±0.5 ms).

CB1 receptor [6] = target: T2, CB1 receptor; experiment: Pregnenolone concentrations in the brain after drugs of abuse and CB1 ligands (GC/MS); type: in vivo, Wistar rats; set-up: tissue Charles River Laboratories (France) (animals); host or cells: living Wistar rats, whole animal; conditions: rats, n=6-12 per group
Description: as §1
In this example the inventors analyzed the effects of the injection of the principal drugs of abuse on the production of pregnenolone in male Wistar rats. […] For example, in the brain, starting from pregnenolone two parallel enzymatic cascades allow producing on one hand allopregnanolone and its stereoisomer epiallopregnanolone and on the other testosterone and its metabolite DHT. These brain steroids were quantified using GC-MS, the only technique able to differentiate their subtle structural differences. […] Concentrations of neurosteroids were analyzed 15, 30 and 120 min after the injection in several ascending brain structure, the ventral midbrain the hypothalamus, the striatal complex and the frontal cortex.
The example provides data obtained in the plasma and in several brain structures: frontal cortex (FCX); nucleus accumbens (ACC); striatum (STR); hypothalamus (HYP).
The effects of THC in the brain are mediated by a family of G-protein-coupled seven membrane receptors (GCPR) and principally by the CB1 and CB2 receptors.

| SMILES | metabolism in downstream active steroids (Reduced metabolism / Metabolized) (CHO cells) | inhibition in vivo at 6 mg/kg (TNF-α) | production of allopregnanolone and epiallopregnanolone in nucleus accumbens [1] | effect on THC-induced increase in food intake (hyperphagia) in mice (CB1 receptor [2]) | % Inhibition of THC-Induced food intake (CB1 receptor [2]) | first statistically significant dose for decrease of food intake (CB1 receptor [3]) | effect on food intake in 24 h-food deprived mice (CB1 receptor [3]) | effect on increase in food intake induced by THC in ad libitum fed Wistar rats (CB1 receptor [4]) | effect of CB1/CB2 agonists on pregnenolone concentrations (CB1 receptor [6]) | other results |
| --- | --- | --- | --- | --- | --- | --- | --- | --- | --- | --- |
| CC(=O)C1CCC2C3CC=C4C[C@@H](F)CC[C@]4(C)C3CC[C@]12C (stereo partly drawn) [Compound 1, 3β-Fluoropregnenolone] | Reduced metabolism | 58% | None of the modified pregnenolone derivatives | decreased THC-induced hyperphagia | ≥100%, P < 0.01 | 6 mg/kg | dose-dependently decreased food intake | non statistically significant trend to decrease | – | – |
| CC(=O)[C@@]1(C)CCC2C3CC=C4C[C@@H](O)CC[C@]4(C)C3CC[C@@]21C (stereo partly drawn) [Compound 2, 17α-Methylpregnenolone] | Reduced metabolism | 60% | None of the modified pregnenolone derivatives | decreased THC-induced hyperphagia | ≥100%, P < 0.001 | 4 mg/kg | dose-dependently decreased food intake | significantly reduced; also recorded: decrease significantly the increase in food intake induced by THC in rats | – | % Inhibition temperature decrease (CB1 receptor [5]): 43%, P < 0.001; % increase in motor activity (CB1 receptor [5]): 240%, P < 0.01; dose inhibiting THC-induced increase in food-intake (first effective dose) (CB1 receptor [2]; dose response in 24 h-food deprived mice, 0.5 mg/kg dose was ineffective): 1 mg/kg |
| CC(=O)[C@@]1(C)CCC2C3CC=C4C[C@@H](F)CC[C@]4(C)C3CC[C@@]21C (stereo partly drawn) [Compound 3, 3β-Fluoro-17α-methylpregnenolone] | Reduced metabolism | – | None of the modified pregnenolone derivatives | decreased THC-induced hyperphagia | ≥100%, P < 0.01 | 6 mg/kg | dose-dependently decreased food intake | non statistically significant trend to decrease | – | – |
| CC(=O)[C@H]1CCC2C3CC[C@@H]4C[C@@H](O)CC[C@]4(C)C3CC[C@@]21C (stereo partly drawn) [Compound 46, 5α-Pregnan-3α-ol-20-one (Allopregnanolone), reference compound] | Metabolized | – | – | – | – | – | – | – | – | mIPSC amplitude (GABA-A receptors; slices pre-treated with 100 nM): 15.9±0.5 pA; mIPSC decay time (GABA-A receptors; slices pre-treated with 100 nM): 13.6 ± 0.7 ms; mIPSC amplitude (GABA-A receptors; slices pre-treated with 1 μM): 20.2±1.2 pA; mIPSC decay time (GABA-A receptors; slices pre-treated with 1 μM): 22.7 ± 2.3 ms |
| CCCCCCC(C)(C)c1cc(O)c2c(c1)OC(C)(C)[C@@H]1CC=C(CO)C[C@@H]21 [HU210] | – | – | – | – | – | – | – | – | induced a significant increase in pregnenolone | – |
| CCCC(C)(C)c1ccc2c(c1)OC(C)(C)[C@@H]1CC=C(C)C[C@@H]21 [JWH, 133] | – | – | – | – | – | – | – | – | much lower and not significant effects | – |
